Measurements taken from patent publication US9670208B2, “Serine/threonine kinase inhibitors” (Array BioPharma Inc., priority 2013, dated 2017).

How the values were obtained:
[1] = target: human ERK-2 (Mitogen Activated Kinase 1) (Homo sapiens (Human), UniProt P28482); experiment: ERK-2 Enzymatic Assay; format: biochemical; details: ERK-2 enzyme, 25 μM ATP; single assay or mean of multiple assays; read-out: Biological Example 1 IC50
[2] = tested on: PMA-stimulated P90RSK(Ser380) phosphorylation in HepG2 cells; experiment: Cellular P90RSK(Ser380) Phosphorylation Assay; format: cell-based; details: Homo sapiens, 1.5 hours compound incubation, PMA 100 ng/mL, normalized to GAPDH, single assay or mean of multiple assays, read-out: Biological Example 2 IC50
Method: Inhibition of PMA-stimulated P90RSK(Ser380) phosphorylation was determined by the following in vitro cellular mechanistic assay, which comprises incubating cells with a compound for 1.5 hours and quantifying fluorescent pP90RSK(Ser380) signal on fixed cells and normalizing to GAPDH signal.
HepG2 cells were obtained from ATCC (Manassas, Va.) and grown in DMEM supplemented with 10% fetal bovine serum. Cells were plated in 96-well plates at 35,000 cells/well and allowed to attach overnight at 37° C./5% CO2. Diluted compounds were then added at a final concentration of 0.5% DMSO. After 1.5 hours compound incubation, cells were stimulated with the addition of phorbol 12-myristate 13-acetate (“PMA”) at a final concentration of 100 ng/mL; the PMA stimulation was a 30-minute incubation at 37° C./5% CO2. After the 30-minute PMA stimulation, cells were washed with phosphate buffered saline (“PBS”) and fixed in 3.7% formaldehyde in PBS at room temperature for 15-20 minutes. This was followed by another wash in PBS and then permeabilization in 100% MeOH at room temperature for 10-15 minutes. Following the permeabilization incubation, cells were washed in PBS/0.05% Tween-20, followed by a block in Odyssey blocking buffer (LI-COR Biosciences) for at least 1 hour. Antibodies to phosphorylated P90RSK(Ser380) (Cell Signaling #9335, rabbit monoclonal) and GAPDH (Fitzgerald 10R-G109a, mouse monoclonal) were added to the cells and incubated overnight at 4° C. pP90RSK(Ser380) antibody was used at a 1:250 dilution; GAPDH was used at a 1:10,000 dilution. After washing with PBS/0.05% Tween-20, the cells were incubated with fluorescently-labeled secondary antibodies (Anti-rabbit-Alexa Flour680, Invitrogen Cat#A21109; Anti-mouse-IRDye800CW, Rockland Inc. Cat#610-131-121) for 1 hour. Both secondary antibodies were used at a 1:1000 dilution. Cells were then washed and analyzed for fluorescence at both wavelengths using the Odyssey Infrared Imaging System (LI-COR Biosciences). Phosphorylated P90RSK(Ser380) signal was normalized to GAPDH signal.

human ERK-2 (Mitogen Activated Kinase 1), sequence (P28482 8-360): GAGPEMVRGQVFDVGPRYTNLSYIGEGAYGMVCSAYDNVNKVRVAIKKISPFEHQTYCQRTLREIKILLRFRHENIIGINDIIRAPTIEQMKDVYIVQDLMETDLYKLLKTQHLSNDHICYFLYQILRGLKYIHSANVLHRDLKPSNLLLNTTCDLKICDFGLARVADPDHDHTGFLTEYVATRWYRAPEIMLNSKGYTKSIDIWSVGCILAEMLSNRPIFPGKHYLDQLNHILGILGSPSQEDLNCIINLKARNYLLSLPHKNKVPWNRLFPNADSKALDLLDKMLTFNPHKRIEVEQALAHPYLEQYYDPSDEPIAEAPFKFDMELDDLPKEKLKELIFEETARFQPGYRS

Compound | IC50 [1] | IC50 [2]
Cn1nccc1Nc1nccc(-c2ccn3c(Cc4cccc(Cl)c4Cl)nnc3c2)n1 [Example 57, 4-(3-(2,3-dichlorobenzyl)-[1,2,4]triazolo[4,3-a]pyridin-7-yl)-N-(1-methyl-1H-pyrazol-5-yl)pyrimidin-2-amine] | 0.5 nM | 4.6 nM
Cn1nccc1Nc1nccc(-c2ccn3c(Cc4cc(C5CC5)ccn4)nnc3c2)n1 [Example 35, 4-(3-((4-cyclopropylpyridin-2-yl)methyl)-[1,2,4]triazolo[4,3-a]pyridin-7-yl)-N-(1-methyl-1H-pyrazol-5-yl)pyrimidin-2-amine] | 0.8 nM | 17 nM
c1cc(-c2ccn3c(C4CCCNC4)nnc3c2)nc(NC2CCOCC2)n1 (stereo not shown) [Example 131, 4-(3-(piperidin-3-yl)-[1,2,4]triazolo[4,3-a]pyridin-7-yl)-N-(tetrahydro-2H-pyran-4-yl)pyrimidin-2-amine] | 224 nM | 2380 nM
Cn1nccc1Nc1nccc(-c2ccn3c(CSC4CCCC4)nnc3c2)n1 [Example 307, 4-(3-((cyclopentylthio)methyl)-[1,2,4]triazolo[4,3-a]pyridin-7-yl)-N-(1-methyl-1H-pyrazol-5-yl)pyrimidin-2-amine] | 3.5 nM | 32.2 nM
COc1ncc(F)cc1CN1CCCC(c2nnc3cc(-c4ccnc(NC5CCOCC5)n4)ccn23)C1 (stereo not shown) [Example 132, 4-(3-(1-((5-fluoro-2-methoxypyridin-3-yl)methyl)piperidin-3-yl)-[1,2,4]triazolo[4,3-a]pyridin-7-yl)-N-(tetrahydro-2H-pyran-4-yl)pyrimidin-2-amine] | 197 nM | > 5000 nM

Second part, led by results:

IC50 [1] | Compound | IC50 [2]
172 nM | Cn1nccc1Nc1nccc(-c2ccn3c(C(=O)N4CCCC4)nnc3c2)n1 [Example 512, (7-(2-((1-methyl-1H-pyrazol-5-yl)amino)pyrimidin-4-yl)-[1,2,4]triazolo[4,3-a]pyridin-3-yl)(pyrrolidin-1-yl)methanone] | > 5000 nM
5.4 nM | CN(C)C(c1ccc(F)cc1)c1nnc2cc(-c3ccnc(Nc4ccnn4C)n3)ccn12 (stereo not shown) [Example 377, 4-(3-((dimethylamino)(4-fluorophenyl)methyl)-[1,2,4]triazolo[4,3-a]pyridin-7-yl)-N-(1-methyl-1H-pyrazol-5-yl)pyrimidin-2-amine] | 82.9 nM
3 nM | Fc1ccccc1Cc1nnc2cc(-c3ccnc(NC4CCOCC4)n3)ccn12 [Example 398, 4-(3-(2-fluorobenzyl)-[1,2,4]triazolo[4,3-a]pyridin-7-yl)-N-(tetrahydro-2H-pyran-4-yl)pyrimidin-2-amine] | 15.5 nM
